Experimental data taken from US20250145633A1, “SUBSTITUTED FURANOPYRIMIDINE COMPOUNDS AS PDE1 INHIBITORS” (Dart NeuroScience, LLC, priority 2017, published 2025).

Biological target: human PDE1B enzyme (Homo sapiens (Human), UniProt Q01064)
Assay: IMAP TR-FRET PDE1B enzymatic assay
Format: biochemical
Details: negative log of half-maximal molar inhibitory concentration, 200 nM FAM-cAMP, values given as bins; for IC50: read-out: PDE1b (pIC50) (converted)
Method in brief: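 Full-length GST-tagged human PDE1B (250 pg/well) in IMAP BSA buffer with 10 U/ml calmodulin and 2.5 mM CaCl2; compound pre-incubated 5 min at room temperature, then 200 nM (final) FAM-cAMP for 30 min. IMAP binding reagent/Tb added, 1 h; TR-FRET 520/490 ratio read. IC50 from sigmoidal dose-response fit.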

| Compound | IC50 [nM] | PDE1b (pIC50) |
| --- | --- | --- |
| Cc1oc2ncnc(NC3(C)CC3)c2c1C(=O)N1C[C@H]2CC[C@@H](C1)O2 [Example 499, 6-Methyl-N-(1-methylcyclopropyl)-5-[(1R,5S)-8-oxa-3-azabicyclo[3.2.1]octane-3-carbonyl]furo[2,3-d]pyrimidin-4-amine] | 100 to 1000 | – |
| COc1ccc(C(C)NC(=O)c2c(C)oc3ncnc(NC4(C)CC4)c23)cc1C (stereo not drawn) [Example 502, N-[1-(4-Methoxy-3-methylphenyl)ethyl]-6-methyl-4-[(1-methylcyclopropyl)amino]furo[2,3-d]pyrimidine-5-carboxamide] | – | >8 |
| C=CCN(Cc1ccc(OC)cc1)C(=O)c1c(C)oc2ncnc(NC3(C)CC3)c12 [Example 508, N-[(4-Methoxyphenyl)methyl]-6-methyl-4-[(1-methylcyclopropyl)amino]-N-(prop-2-en-1-yl)furo[2,3-d]pyrimidine-5-carboxamide] | 10 to 100 | – |
| CCOc1ccc(CNC(=O)c2c(C)oc3ncnc(NC4(C)CC4)c23)cc1OC [Example 509, N-[(4-Ethoxy-3-methoxyphenyl)methyl]-6-methyl-4-[(1-methylcyclopropyl)amino]furo[2,3-d]pyrimidine-5-carboxamide] | 10 to 100 | – |
| COc1ccc(C(C)N(C)C(=O)c2c(C)oc3ncnc(NC4(C)CC4)c23)cc1F (stereo not drawn) [Example 510, N-[1-(3-Fluoro-4-methoxyphenyl)ethyl]-N,6-dimethyl-4-[(1-methylcyclopropyl)amino]furo[2,3-d]pyrimidine-5-carboxamide] | 10 to 100 | – |
| Cc1oc2ncnc(NC3(C)CC3)c2c1C(=O)NC(CO)c1ccc(F)cc1 (stereo not drawn) [Example 513, N-[1-(4-Fluorophenyl)-2-hydroxyethyl]-6-methyl-4-[(1-methylcyclopropyl)amino]furo[2,3-d]pyrimidine-5-carboxamide] | 10 to 100 | – |
| C#CC(C)(C)NC(=O)c1c(C)oc2ncnc(NC3(C)CC3)c12 [Example 520, 6-Methyl-N-(2-methylbut-3-yn-2-yl)-4-[(1-methylcyclopropyl)amino]furo[2,3-d]pyrimidine-5-carboxamide] | 10 to 100 | – |
| Cc1oc2ncnc(NC3(C)CC3)c2c1C(=O)N1CCN(c2ccc(F)cc2S(C)(=O)=O)CC1 [Example 521] | 10 to 100 | – |
| Cc1oc2ncnc(NC3(C)CC3)c2c1C(=O)N1CCN(c2ccc(S(C)(=O)=O)cc2F)CC1C (stereo not drawn) [Example 522, 5-[4-(2-Fluoro-4-methanesulfonylphenyl)-2-methylpiperazine-1-carbonyl]-6-methyl-N-(1-methylcyclopropyl)furo[2,3-d]pyrimidin-4-amine] | 10 to 100 | – |
| COc1ccc(CNC(=O)c2c(C)oc3ncnc(NC4(C)CC4)c23)c(C)c1 [Example 524, N-[(4-Methoxy-2-methylphenyl)methyl]-6-methyl-4-[(1-methylcyclopropyl)amino]furo[2,3-d]pyrimidine-5-carboxamide] | 10 to 100 | – |
| COc1cc(F)ccc1CNC(=O)c1c(C)oc2ncnc(NC3(C)CC3)c12 [Example 525, N-[(4-Fluoro-2-methoxyphenyl)methyl]-6-methyl-4-[(1-methylcyclopropyl)amino]furo[2,3-d]pyrimidine-5-carboxamide] | 10 to 100 | – |
| COc1ccccc1CN(C)C(=O)c1c(C)oc2ncnc(NC3(C)CC3)c12 [Example 528, N-[(2-Methoxyphenyl)methyl]-N,6-dimethyl-4-[(1-methylcyclopropyl)amino]furo[2,3-d]pyrimidine-5-carboxamide] | 10 to 100 | – |
| Cc1oc2ncnc(NC3(C)CC3)c2c1C(=O)N1CCC(c2ncccc2F)C1 (stereo not drawn) [Example 529, 5-[3-(3-Fluoropyridin-2-yl)pyrrolidine-1-carbonyl]-6-methyl-N-(1-methylcyclopropyl)furo[2,3-d]pyrimidin-4-amine] | 10 to 100 | – |
| COc1ccc(C2CCN(C(=O)c3c(C)oc4ncnc(NC5(C)CC5)c34)CC2)nc1F [Example 530, 5-[4-(6-Fluoro-5-methoxypyridin-2-yl)piperidine-1-carbonyl]-6-methyl-N-(1-methylcyclopropyl)furo[2,3-d]pyrimidin-4-amine] | 10 to 100 | – |
| Cc1oc2ncnc(NC3(C)CC3)c2c1C(=O)N1CCC(c2cccc(F)n2)C1 (stereo not drawn) [Example 532, 5-[3-(6-Fluoropyridin-2-yl)pyrrolidine-1-carbonyl]-6-methyl-N-(1-methylcyclopropyl)furo[2,3-d]pyrimidin-4-amine] | – | >8 |
| Cc1oc2ncnc(NC3(C)CC3)c2c1C(=O)NCc1cc(C#N)ccc1F [Example 533, N-[(5-Cyano-2-fluorophenyl)methyl]-6-methyl-4-[(1-methylcyclopropyl)amino]furo[2,3-d]pyrimidine-5-carboxamide] | – | >8 |
| Cc1oc2ncnc(NC3(C)CC3)c2c1C(=O)NCc1ccc(Cl)cc1F [Example 534, N-[(4-Chloro-2-fluorophenyl)methyl]-6-methyl-4-[(1-methylcyclopropyl)amino]furo[2,3-d]pyrimidine-5-carboxamide] | 10 to 100 | – |

| Compound | IC50 [nM] | PDE1b (pIC50) |
| --- | --- | --- |
| Cc1oc2ncnc(NC3(C)CC3)c2c1C(=O)N1CCNC(c2ccc(F)cc2)C1 (stereo not drawn) [Example 536, 5-[3-(4-Fluorophenyl)piperazine-1-carbonyl]-6-methyl-N-(1-methylcyclopropyl)furo[2,3-d]pyrimidin-4-amine] | – | >8 |
| COc1ccc(CCNC(=O)c2c(C)oc3ncnc(NC4(C)CC4)c23)cc1OC [Example 545, N-[2-(3,4-Dimethoxyphenyl)ethyl]-6-methyl-4-[(1-methylcyclopropyl)amino]furo[2,3-d]pyrimidine-5-carboxamide] | 10 to 100 | – |
| COc1cccc(F)c1CNC(=O)c1c(C)oc2ncnc(NC3(C)CC3)c12 [Example 547, N-[(2-Fluoro-6-methoxyphenyl)methyl]-6-methyl-4-[(1-methylcyclopropyl)amino]furo[2,3-d]pyrimidine-5-carboxamide] | 10 to 100 | – |
| COc1ccc(CNC(=O)c2c(C)oc3ncnc(NC4(C)CC4)c23)c(Cl)c1 [Example 551, N-[(2-Chloro-4-methoxyphenyl)methyl]-6-methyl-4-[(1-methylcyclopropyl)amino]furo[2,3-d]pyrimidine-5-carboxamide] | 10 to 100 | – |
| CCOc1cccc(F)c1CNC(=O)c1c(C)oc2ncnc(NC3(C)CC3)c12 [Example 552, N-[(2-Ethoxy-6-fluorophenyl)methyl]-6-methyl-4-[(1-methylcyclopropyl)amino]furo[2,3-d]pyrimidine-5-carboxamide] | 10 to 100 | – |
| COc1ccccc1OCCNC(=O)c1c(C)oc2ncnc(NC3(C)CC3)c12 [Example 557, N-[2-(2-Methoxyphenoxy)ethyl]-6-methyl-4-[(1-methylcyclopropyl)amino]furo[2,3-d]pyrimidine-5-carboxamide] | – | >8 |
| COc1ccccc1OCCN(C)C(=O)c1c(C)oc2ncnc(NC3(C)CC3)c12 [Example 558, N-[2-(2-Methoxyphenoxy)ethyl]-N,6-dimethyl-4-[(1-methylcyclopropyl)amino]furo[2,3-d]pyrimidine-5-carboxamide] | 10 to 100 | – |
| Cc1oc2ncnc(NC3(C)CC3)c2c1C(=O)NCCOc1ccccc1F [Example 559, N-[2-(2-Fluorophenoxy)ethyl]-6-methyl-4-[(1-methylcyclopropyl)amino]furo[2,3-d]pyrimidine-5-carboxamide] | – | >8 |
| Cc1oc2ncnc(NC3(C)CC3)c2c1C(=O)NCCCc1nc2cc(F)ccc2[nH]1 [Example 568, N-[3-(5-Fluoro-1H-1,3-benzodiazol-2-yl)propyl]-6-methyl-4-[(1-methylcyclopropyl)amino]furo[2,3-d]pyrimidine-5-carboxamide] | 10 to 100 | – |
| Cc1oc2ncnc(NC3(C)CC3)c2c1C(=O)N(C)Cc1cc2cc(F)ccc2[nH]1 [Example 569, N-[(5-Fluoro-1H-indol-2-yl)methyl]-N,6-dimethyl-4-[(1-methylcyclopropyl)amino]furo[2,3-d]pyrimidine-5-carboxamide] | 10 to 100 | – |
| COc1ccc2[nH]c(CNC(=O)c3c(C)oc4ncnc(NC5(C)CC5)c34)cc2c1 [Example 570, N-[(5-Methoxy-1H-indol-2-yl)methyl]-6-methyl-4-[(1-methylcyclopropyl)amino]furo[2,3-d]pyrimidine-5-carboxamide] | 10 to 100 | – |
| Cc1oc2ncnc(NC3(C)CC3)c2c1C(=O)NCc1cnn(-c2ccc(F)cc2)c1 [Example 571, N-{[1-(4-Fluorophenyl)-1H-pyrazol-4-yl]methyl}-6-methyl-4-[(1-methylcyclopropyl)amino]furo[2,3-d]pyrimidine-5-carboxamide] | 10 to 100 | – |
| Cc1oc2ncnc(NC3(C)CC3)c2c1C(=O)NCc1cnn(-c2cccc(F)c2)c1 [Example 572, N-{[1-(3-Fluorophenyl)-1H-pyrazol-4-yl]methyl}-6-methyl-4-[(1-methylcyclopropyl)amino]furo[2,3-d]pyrimidine-5-carboxamide] | – | >8 |
| COc1ccc(CN(CCCO)C(=O)c2c(C)oc3ncnc(NC4(C)CC4)c23)cc1 [Example 573, N-(3-Hydroxypropyl)-N-[(4-methoxyphenyl)methyl]-6-methyl-4-[(1-methylcyclopropyl)amino]furo[2,3-d]pyrimidine-5-carboxamide] | 10 to 100 | – |
| Cc1oc2ncnc(NC3(C)CC3)c2c1C(=O)N(CCCO)Cc1ccc(F)cc1 [Example 574, N-[(4-Fluorophenyl)methyl]-N-(3-hydroxypropyl)-6-methyl-4-[(1-methylcyclopropyl)amino]furo[2,3-d]pyrimidine-5-carboxamide] | – | >8 |
| Cc1oc2ncnc(NC3(C)CC3)c2c1C(=O)N(C)Cc1nc2ccc(F)cc2[nH]1 [Example 575, N-[(6-Fluoro-1H-1,3-benzodiazol-2-yl)methyl]-N,6-dimethyl-4-[(1-methylcyclopropyl)amino]furo[2,3-d]pyrimidine-5-carboxamide] | 100 to 1000 | – |
